Measured values: paper PMC7618719, “Generation of T cells with reduced off-target cross-reactivities by engineering co-signalling receptors” (Nature Biomedical Engineering, 2026)

System: Lck
Assay: Lck chemical inhibition assay, CD69 on A-770041-treated c259 TCR-T cells
Format: cell-based, human
Settings: c259 TCR-T cells treated 1 h with A-770041, U87 with NY-ESO-1 peptides, 4 h, CD69 and TNFα
Method: U87 cells (50,000) in 100 μl of DMEM were seeded per well in a 96-well flat-bottom plate and incubated overnight. T cells were treated with the appropriate concentration of A-770041 for 1 h. The DMEM media were discarded and 50,000 A-770041-treated T cells were added to each well in 200 μl of RPMI media. Cells were incubated for 4 h at 37 ^∘C and 5% CO2.
Cells were stained for 20 min at 4 ^∘C, washed with PBS and analysed using a BD X-20 or a Cytoflex LX flow cytometer (Beckman Couter). Data were analysed using FlowJo v.10, RRID:SCR008520 (BD Biosciences) and GraphPad Prism, RRID:SCR002798 (GraphPad Software).

Question: Which “effect of Lck inhibition on T cell ligand discrimination” value does the source give for COc1cc(-c2nn([C@H]3CC[C@H](N4CCN(C(C)=O)CC4)CC3)c3ncnc(N)c23)ccc1NC(=O)c1cc2ccccc2n1C [A-770041] here?
Answer: Its value is “increases T cell ligand discrimination”.
